Experimental data as given in the NIST ThermoML archive (doi:10.1021/acs.jced.9b00134).

Tests used:
[1] = xn = mol fraction of the nth substance listed; conditions: 101.13 kPa, Liquid, x1 = 0.5; for mass density: Vibrating tube method; for electrical conductivity: Alternating current cell with electrodes; for viscosity: Concentric cylinders viscometry
[2] = refractive index (Na D-line) (dimensionless); xn = mol fraction of the nth substance listed; conditions: 101.13 kPa, Liquid, Standard Abbe refractometry, x1 = 0.5
[3] = 293.15 K, 101.13 kPa, Vibrating tube method

C[N+](C)(C)Cc1ccccc1.[Cl-] [trimethylbenzylammonium chloride] + OCCO
Conditions | electrical conductivity, [1] [S/m] | mass density, [1] [kg/m3] | refractive index, [2] | viscosity, [1] [mPa·s]
293 K | – | 1123.7 | 1.4806 | –
298 K | 0.539 | 1118 | 1.4763 | 137.3
303 K | 0.706 | 1111.2 | 1.4731 | 96.5
308 K | 0.843 | 1105.1 | 1.4695 | 54.6
313 K | 0.902 | 1098 | 1.4652 | 28.9
318 K | 0.965 | 1091 | 1.4611 | 20.7
323 K | 1.02 | 1085 | 1.4587 | 14.2

CCC(O)CO (stereo not given) [1,2-butanediol]
Conditions | mass density [kg/m3]
[3], Liquid | 1000

C[N+](C)(C)Cc1ccccc1.[Cl-] [trimethylbenzylammonium chloride] + OCCCCCCO
Conditions | electrical conductivity, [1] [S/m] | mass density, [1] [kg/m3] | refractive index, [2] | viscosity, [1] [mPa·s]
293 K | – | 1142.3 | 1.5143 | –
298 K | 0.0842 | 1132.6 | 1.5107 | 298.3
303 K | 0.145 | 1126.2 | 1.5083 | 143.6
308 K | 0.17 | 1119.7 | 1.5052 | 72.9
313 K | 0.184 | 1113.4 | 1.5016 | 38.7
318 K | 0.195 | 1107.1 | 1.4987 | 23.5
323 K | 0.253 | 1100 | 1.4963 | 16.8

O=C([O-])[O-].[Na+].[Na+] [sodium carbonate]
Conditions | mass density [kg/m3]
[3], Crystal | 2516

OCC(O)CO [glycerol]
Conditions | mass density [kg/m3]
[3], Liquid | 1238

C[N+](C)(C)Cc1ccccc1.[Cl-] [trimethylbenzylammonium chloride]
Conditions | mass density [kg/m3]
[3], Crystal | 1061

C[N+](C)(C)Cc1ccccc1.[Cl-] [trimethylbenzylammonium chloride] + CCC(O)CO
Conditions | electrical conductivity, [1] [S/m] | mass density, [1] [kg/m3] | refractive index, [2] | viscosity, [1] [mPa·s]
293 K | – | 1104 | 1.4982 | –
298 K | 0.194 | 1093 | 1.4956 | 231.7
303 K | 0.312 | 1083 | 1.4921 | 128.5
308 K | 0.382 | 1073 | 1.4892 | 64.2
313 K | 0.437 | 1064 | 1.4851 | 34.5
318 K | 0.465 | 1057 | 1.4823 | 22.1
323 K | 0.532 | 1049 | 1.4781 | 17.9

OCCCCCCO [1,6-hexanediol]
Conditions | mass density [kg/m3]
[3], Liquid | 947

OCCO [1,2-ethanediol]
Conditions | mass density [kg/m3]
[3], Liquid | 1105

C[N+](C)(C)Cc1ccccc1.[Cl-] [trimethylbenzylammonium chloride] + OCC(O)CO
Conditions | electrical conductivity, [1] [S/m] | mass density, [1] [kg/m3] | refractive index, [2] | viscosity, [1] [mPa·s]
293 K | – | 1170.3 | 1.5653 | –
298 K | 0.0688 | 1167.2 | 1.5612 | 383.9
303 K | 0.115 | 1164.3 | 1.5587 | 159.6
308 K | 0.123 | 1161.4 | 1.556 | 79.8
313 K | 0.126 | 1158.4 | 1.5532 | 48.5
318 K | 0.123 | 1155 | 1.5503 | 29.7
323 K | 0.178 | 1152.4 | 1.5493 | 18.3
